Test results as given in US6825191B2, “Benzodiazepine derivatives” (Ajinomoto Co., Inc., priority 2000, dated 2004).
Counter-ions that a name gives are not always drawn.

Key:
[1] = molecular target: T1, activated human blood coagulation factor X (Homo sapiens, UniProt P00742); test: Determination of activity of inhibiting the activated blood-coagulation factor X (chromogenic substrate, initial rate); type: biochemical; settings: negative logarithm of concentration inhibiting 50% of initial rate, tris hydrochloride buffer pH 8.4, room temperature; for IC50: read-out: Activity of inhibiting activated blood coagulation factor X (pIC50) (converted)
T1 construct: purchased Enzyme Research Co
T1 sequence (P00742 235-488 limits assumed): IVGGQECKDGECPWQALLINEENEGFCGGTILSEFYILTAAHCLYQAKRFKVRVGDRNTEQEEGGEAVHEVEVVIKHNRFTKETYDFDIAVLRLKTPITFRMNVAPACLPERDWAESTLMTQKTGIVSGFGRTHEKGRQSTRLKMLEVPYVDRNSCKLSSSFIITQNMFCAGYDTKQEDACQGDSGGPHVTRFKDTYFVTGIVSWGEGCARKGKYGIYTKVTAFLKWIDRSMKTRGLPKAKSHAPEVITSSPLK
T1 sequence (P00742 41-179 partner limits assumed): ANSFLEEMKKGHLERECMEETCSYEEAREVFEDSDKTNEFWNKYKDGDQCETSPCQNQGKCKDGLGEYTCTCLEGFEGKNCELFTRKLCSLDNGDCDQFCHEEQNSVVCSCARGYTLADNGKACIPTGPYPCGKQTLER
Method: Determination of Activity of inhibiting the Activated Blood-coagulation Factor X
130 μl of 100 mM tris hydrochloride buffer adjusted to pH 8.4 was added to 10 μl of an aqueous solution of a compound to be tested. Then 10 μl of a 0.5 unit/ml solution of activated human blood coagulation factor X (a product of Enzyme Research Co.) in tris hydrochloride buffer of pH 8.4 was added to the resultant mixture. After the incubation at room temperature for 10 minutes, 50 μl of a solution of N-benzoyl-L-isoleucyl-L-glutamyl-glycyl-L-arginyl-P-nitroanilide hydrochloride (a product of Peptide Institute Inc.) adjusted to 0.8 mM with tris hydrochloride (pH 8.4) was added thereto. The a absorbance was determined and then the initial reaction rate was determined. A control was prepared in the same manner as that described above except that the solution of the compound to be tested was replaced with 10 μl of tris hydrochloride buffer adjusted to pH 8.4. The absorbance was determined with MICROPLATE READER Model 3550-UV (a product of BIO RAD) at a wave length of 405 nm at intervals of 15 seconds for 16 minutes.

human thrombin = molecular target: T2, human thrombin (Homo sapiens, UniProt P00734); test: Determination of thrombin-inhibiting activity (chromogenic substrate S-2238, initial rate); type: biochemical; settings: negative logarithm of concentration inhibiting 50% of initial rate, tris hydrochloride buffer pH 8.4, room temperature; for IC50: read-out: Thrombin-inhibiting activity (pIC50) (converted)
T2 construct: solution of human thrombin (a product of SIGMA Co.); purchased SIGMA Co
Method: Determination of Thrombin-inhibiting Activity
130 μL of 100 mM tris hydrochloride buffer adjusted to pH 8.4 was added to 10 μl of an aqueous solution of a test compound. Then 10 μl of a solution of human thrombin (a product of SIGMA Co.) adjusted to 2 units/ml with tris hydrochloride buffer of pH 8.4 was added to the resultant mixture. After the incubation at room temperature for 10 minutes, 50 μl of a solution of D-phenylalanine-L-pipecolyl-L-arginine-P-nitroanilide dihydrochloride (S-2238; a product of Daiichi Kagaku Yakuhin Co.) adjusted to 0.4 mM with tris hydrochloride buffer of pH 8.4 was added thereto. The absorbance was determined and then the initial reaction rate was determined. A control was prepared in the same manner as that described above except that the solution of the compound to be tested was replaced with 10 μl of tris hydrochloride buffer adjusted to pH 8.4. The absorbance was determined with MICROPLATE READER Model 3550-UV (a product of BIO RAD) at a wave length of 405 nm at intervals of 15 seconds for 16 minutes. The negative logarithm (pIC50) of a concentration of the test compound which inhibits 50% of the activity (initial rate) of the thrombin in the absence of the test compound was determined, and employed as the index of the activity of inhibiting thrombin.

blood plasma = test: Determination of blood anticoagulating activity by prothrombin time (PT) determination method; type: biochemical, human; settings: negative logarithm of concentration which elongated PT of the control to twice as long; blood plasma of healthy people
Method: Determination of Blood Anticoagulating Activity
The blood anticoagulating activity was determined by a prothrombin time (PT) determination method. The PT was determined as follows: The blood was taken from healthy people. 3.8% aqueous trisodium citrate solution was added to the blood in a volume ratio of 1:10. The blood plasma was separated by the centrifugation. 5 μl of DMSO solution containing a test compound was added to 45 μl of the blood plasma. After the incubation apt room temperature for 2 minutes, a test tube containing the blood plasma solution was placed in Sysmex CA-3000 fully automatic blood coagulation determination device (a product of Toa Medical Electronics Co., Ltd), and incubated at 37° C. for 3 minutes. 100 μl of Sysmex PT II (rabbit brain tissue thromboplastin, 13.2 mM calcium chloride; a product of Toa Medical Electronics Co., Ltd) was fed into the test tube. PT was automatically determined with the device. A sample containing 5 μl of DMSO in place of the solution of the test compound was used as the control. The negative logarithm (pPT2) of the concentration of the test compound which elongated PT of the control to the twice as long was determined, and employed as the index of the blood anticoagulating activity.

Row | IC50 [1] [µM] | IC50 (human thrombin) [µM] | Activity of inhibiting activated blood coagulation factor X (pIC50) [1] | Thrombin-inhibiting activity (pIC50) (human thrombin) | Compound | Human blood anticoagulating activity (pPT2) (blood plasma)
1 | 0.0251 | 31.6 | – | – | O=C(c1ccc(CN2C(=O)CN(C(=O)c3ccc(Cl)cc3)Cc3ccc(CCP(=O)(O)O)cc32)cc1)N1CCCC1 [Compd. of Ex. 71-1, [2-(4-(4-chlorobenzoyl)-2-oxo-1-(4-(1-pyrrolidinecarbonyl)benzyl)-2,3,4,5-tetrahydro-1H-benzo[e][1,4]-diazepin-8-yl)ethyl]phosphonic acid] | 5.0
2 | 0.0398 | – | – | – | O=C(O)CCc1ccc2c(c1)N(Cc1ccc(C(=O)N3CC=CC3)cc1)C(=O)CN(C(=O)c1ccc(Cl)cc1)C2 [Compd. of Ex. 65, 3-[4-(4-chlorobenzoyl)-2-oxo-1-[4-(2,5-dihydro-1H-pyrrol-1-ylcarbonyl)benzyl]-2,3,4,5-tetrahydro-1H-benzo[e][1,4]-diazepin-8-yl]propionic acid] | 4.7
3 | 0.0398 | 63.1 | – | – | O=C(CCc1ccc2c(c1)N(Cc1ccc(C(=O)N3CC=CC3)cc1)C(=O)CN(C(=O)c1ccc(Cl)cc1)C2)N1CCOCC1 [Compd. of Ex. 68, 4-(4-chlorobenzoyl)-8-(3-morpholine-4-yl-3-oxopropyl)-1-[4-(2,5-dihydro-1H-pyrrol-1-ylcarbonyl)benzyl]-1,3,4,5-tetrahydrobenzo[e][1,4]diazepin-2-on] | 5.2
4 | 0.0794 | > 100 | – | – | O=C(O)C(F)(F)F.O=C(c1ccc(CN2C(=O)CN(C(=O)c3ccc(Cl)cc3)Cc3ccccc32)nc1)N1CC=CC1 [Compd. of Ex. 181, 4-(4-chlorobenzoyl)-1-[(5-(2,5-dihydro-1H-pyrrol-1-ylcarbonyl)-2-pyridinyl)methyl]-1,3,4,5-tetrahydrobenzo[e][1,4]-diazepin-2-on trifluoroacetate] | 5.3
5 | 0.0398 | 79.4 | – | – | O=C(c1ccc(CN2C(=O)CN(C(=O)c3ccc(Cl)cc3)Cc3ccc(CCCO)cc32)cc1)N1CC=CC1 [Compd. of Ex. 90] | 5.0
6 | 0.0316 | 50.1 | – | – | O=C(c1ccc(CN2C(=O)CN(C(=O)c3ccc(Cl)cc3)Cc3ccccc32)cc1)N1CC=CC1 [Compd. of Ex. 49, 1-[4-(2,5-dihydro-1H-pyrrol-1-ylcarbonyl)benzyl]-4-(4-chlorobenzoyl)-1,3,4,5-tetrahydrobenzo[e][1,4]-diazepin-2-on] | 5.0
7 | 0.0316 | > 100 | – | – | CN1CC[N+](C)=C1c1ccc(CN2C(=O)CN(C(=O)c3ccc(Cl)cc3)Cc3c(Cl)cccc32)cc1.O=C([O-])C(F)(F)F [Compd. of Ex. 207, 6-chloro-4-(4-chlorobenzoyl)-1-[4-(1,3-dimethyl-4,5-dihydro-1H-imidazol-3-ium-2-yl)benzyl]-1,3,4,5-tetrahydro-benzo[e][1,4]diazepin-2-on trifluoroacetate] | 5.7
8 | 0.0631 | 39.8 | – | – | CC(C)N1CCN(C(=O)CCc2ccc3c(c2)N(Cc2ccc(C(=O)N4CC=CC4)cc2)C(=O)CN(C(=O)c2ccc(Cl)cc2)C3)CC1.O=C(O)C(F)(F)F [Compd. of Ex. 115, 4-(4-chlorobenzoyl)-1-[4-(2,5-dihydro-1H-pyrrol-1-ylcarbonyl)benzyl]-8-[3-(4-isopropyl-1-piperazinyl)-3-oxo-propyl]-1,3,4,5-tetrahydrobenzo[e][1,4]diazepin-2-on trifluoroacetate] | 5.4

Continued, molecule first:

Row | Compound | IC50 [1] [µM] | IC50 (human thrombin) [µM] | Activity of inhibiting activated blood coagulation factor X (pIC50) [1] | Thrombin-inhibiting activity (pIC50) (human thrombin) | Human blood anticoagulating activity (pPT2) (blood plasma)
9 | CN1CCN=C1c1ccc(CN2C(=O)CN(C(=O)c3ccc(Cl)cc3)Cc3c(Cl)cccc32)cc1.O=C(O)C(F)(F)F [Compd. of Ex. 122, 6-chloro-4-(4-chlorobenzoyl)-1-[4-(1-methyl-4,5-dihydro-1H-imidazol-2-yl)benzyl]-1,3,4,5-tetrahydrobenzo[e][1,4]-diazepin-2-on trifluoroacetate] | 0.0501 | > 100 | – | – | 5.6
10 | CC(=N)N1CCC(Oc2ccc(CN3C(=O)CN(C(=O)c4ccc(Cl)cc4)Cc4ccc(C(=O)O)cc43)cc2)CC1.O=C(O)C(F)(F)F [Compd. of Ex. 43, 4-(4-chlorobenzoyl)-2-oxo-1-[4-(1-(1-acetimidoyl)-4-piperidyloxy)benzyl]-2,3,4,5-tetrahydro-1H-benzo[e][1,4]-diazepine-8-carboxylic acid trifluoroacetate] | – | – | 6.9 | <4.0 | 5.2
11 | O=C(O)C(F)(F)F.O=C(c1ccc(Cl)cc1)N1CC(=O)N(CC2CCN(c3ccncc3)CC2)c2ccccc2C1 [Compd. of Ex. 2, 4-(4-chlorobenzoyl)-1-[1-(4-pyridyl)-4-piperidylmethyl]-1,3,4,5-tetrahydrobenzo[e][1,4]diazepin-2-on trifluoroacetate] | 0.398 | > 100 | – | – | 4.9
12 | CC(C)N1CCC(CCN2C(=O)CN(C(=O)c3ccc(Cl)cc3)Cc3ccccc32)CC1.O=C(O)C(F)(F)F [Compd. of Ex. 169, 4-(4-chlorobenzoyl)-1-[2-(1-isopropyl-4-piperidinyl)ethyl]-1,3,4,5-tetrahydrobenzo[e][1,4]diazepin-2-on trifluoroacetate] | 0.316 | > 100 | – | – | 5.4
13 | O=C(O)C(F)(F)F.O=C(c1ccc(Cl)cc1)N1CC(=O)N(CC2CCN(C3CCCCC3)CC2)c2ccccc2C1 [Compd. of Ex. 143, 4-(4-chlorobenzoyl)-1-[(1-cyclohexyl-4-piperidinyl)methyl]-1,3,4,5-tetrahydrobenzo[e][1,4]diazepin-2-on mono(trifluoroacetate)] | 0.316 | 63.1 | – | – | 5.4
14 | CCOC(=O)c1ccc2c(c1)N(Cc1ccc(C3=NCCN3C)cc1)C(=O)CN(C(=O)c1ccc(Cl)cc1)C2.O=C(O)C(F)(F)F [Compd. of Ex. 204, ethyl 4-(4-chlorobenzoyl)-2-oxo-1-[4-(1-methyl-4,5-dihydro-1H-imidazol-2-yl)benzyl]-2,3,4,5-tetrahydro-1H-benzoyl[e][1,4]diazepine-8-carboxylate trifluoroacetate] | – | – | 6.5 | <4.0 | 5.2
15 | CC(C)N1CCC(CN2C(=O)CN(C(=O)c3ccc(Cl)cc3)Cc3ccccc32)CC1.O=C(O)C(F)(F)F [Compd. of Ex. 142, 4-(4-chlorobenzoyl)-1-[(1-isopropyl-4-piperidinyl)methyl]-1,3,4,5-tetrahydrobenzo[e][1,4]diazepin-2-on trifluoroacetate] | 0.794 | 39.8 | – | – | 5.5
16 | O=C(c1ccc(Cl)s1)N1CC(=O)N(CC2CCN(c3ccncc3)CC2)c2ccccc2C1 [Compd. of Ex. 24, 4-(5-chlorothiophene-2-carbonyl)-1-[1-(4-pyridyl)-4-piperidylmethyl]-1,3,4,5-tetrahydrobenzo[e][1,4]diazepin-2-on trifluoroacetate] | 0.794 | > 100 | – | – | –
